# From patent US20220339209A1, “ISOLATION, IDENTIFICATION AND APPLICATION OF STREPTOCOCCUS SP. 121” (priority 2021, published 2022)
# Tests used:
# Shigella dysenteriae = assay: Filtering paper agar diffusion bacteriostatic test against Shigella dysenteriae; format: cell-based; settings: 50 μL on 0.6 cm filter paper, extract 1 mg/10 μL, positive control 1 mg/mL, MH plate, 37° C., 16-20 h
# Klebsiella pneumoniae = assay: Filtering paper agar diffusion bacteriostatic test against Klebsiella pneumoniae; settings: 50 μL on 0.6 cm filter paper, extract 1 mg/10 μL, positive control 1 mg/mL, MH plate, 37° C., 16-20 h
smiles,measurement,setting,value
"NC[C@H]1O[C@H](O[C@H]2[C@H](O)[C@@H](O[C@H]3O[C@H](CO)[C@@H](O)[C@H](N)[C@H]3O)[C@H](N)C[C@@H]2N)[C@H](O)[C@@H](O)[C@@H]1O [Kanamycin, kanamycin]","size of bacteriostatic ring, mean",Shigella dysenteriae; mean of 3 measurements,23.7 mm
same,size of bacteriostatic ring,Shigella dysenteriae; the first time,24 mm
same,size of bacteriostatic ring,Shigella dysenteriae; the second time,24 mm
same,size of bacteriostatic ring,Shigella dysenteriae; the third time,23 mm
same,"size of bacteriostatic ring, mean",Klebsiella pneumoniae; mean of 3 measurements,19.7 mm
same,size of bacteriostatic ring,Klebsiella pneumoniae; the first time,20 mm
same,size of bacteriostatic ring,Klebsiella pneumoniae; the second time,18 mm
same,size of bacteriostatic ring,Klebsiella pneumoniae; the third time,21 mm
